Reference: patent US20080233209A1, “Composition and method of use for the treatment of metabolic syndrome and inflammation” (POLIFENOLES NATURALES, SL, priority 2007, published 2008)
“Also recorded” adds a separate entry of the source. Read-outs that look alike come from different tables or passages of the source.

Assays:
[1] = Tolerability in the 16-week clinical trial of Example 1; type: in vivo, human
Experimental: Forty-one (n=41) volunteers with an average body weight of 91.5±14.4 kgs (201+9.7 lbs), body fat of 40.4±3.7 kgs (88.8+8 lbs), liver fat content above 10% and average age of 37.4±4.8 years were recruited to take part in a 16-week clinical trial. Daily meal composition was 50% carbohydrate, 30% protein and 20% fat. Food record data, body composition, EER, and blood sample analysis results were assessed on admission and every week for 16-weeks. Energy expenditure rate (EER) was measured by indirect calorimetry. Plasma levels of inflammatory markers alanine aminotransferase (ALT), aspartate aminotransferase (AST), g-glutamyltransferase (GGT) enzymes and C-reactive protein (CRP) were evaluated as measures of liver function, along with diastolic and systolic blood pressure, dual-energy X-ray absorptiometry to determine percent of lean and fat body mass, and liver fat content.
Subjects were randomly assigned to one of 10 treatments or placebo (total 11 groups), which were in softgel capsules and were to be consumed with water 15 to 30 mins. before meals. Each phytomedicine soft-gel capsule provided 100 mg of Undaria pinnatifida (Phaeophyceae) brown marine vegetable extract and 100 mg of cold-pressed pomegranate (Punica granatum, Punicaceae) seed oil.
All subjects completed 16 weeks clinical trial without any reported adverse effects. […]

[2] = Energy expenditure rate (EER) by indirect calorimetry, 16-week double-blind placebo-controlled trial in obese non-diabetic female volunteers with NAFLD (Example 1); type: in vivo, human; set-up: key to Effects on EER: NE = No effect; * = significant vs. placebo and vs. baseline, p < 0.05% at the week listed for the duration of the study; *** = significant vs. placebo and vs. baseline, p < 0.001%; settings: for Effects on EER: 16 weeks
Text: The objectives of the study were to investigate the effects of different doses of a brown marine vegetable extract standardized by fucoxanthin content, pomegranate seed oil containing a minimum of 70% punicic acid, and the phytomedicine combining, both of fucoxanthin and pomegranate seed oil, on energy expenditure rate (EER) in obese non-diabetic female volunteers with non-alcoholic fatty liver disease (NAFLD) on a moderate calorie restriction diet. Forty-one (n=41) volunteers with an average body weight of 91.5±14.4 kgs (201+9.7 lbs), body fat of 40.4±3.7 kgs (88.8+8 lbs), liver fat content above 10% and average age of 37.4±4.8 years were recruited to take part in a 16-week clinical trial. Daily meal composition was 50% carbohydrate, 30% protein and 20% fat. Food record data, body composition, EER, and blood sample analysis results were assessed on admission and every week for 16-weeks. Energy expenditure rate (EER) was measured by indirect calorimetry. Plasma levels of inflammatory markers alanine aminotransferase (ALT), aspartate aminotransferase (AST), g-glutamyltransferase (GGT) enzymes and C-reactive protein (CRP) were evaluated as measures of liver function, along with diastolic and systolic blood pressure, dual-energy X-ray absorptiometry to determine percent of lean and fat body mass, and liver fat content. Subjects were randomly assigned to one of 10 treatments or placebo (total 11 groups), which were in softgel capsules and were to be consumed with water 15 to 30 mins. before meals. Each phytomedicine soft-gel capsule provided 100 mg of Undaria pinnatifida (Phaeophyceae) brown marine vegetable extract and 100 mg of cold-pressed pomegranate (Punica granatum, Punicaceae) seed oil.

[3] = fucoxanthin, wistar rats; cited from earlier work
[4] = fucoxanthin, cited from earlier work
[5] = test system: mitochondrial uncoupling protein 1 (UCP1); settings: fucoxanthin; cited from earlier work

Substance | tolerability ([1]; human, in vivo) | Effects on EER vs. placebo and baseline ([2]; 8.40 mg fucoxanthin) | Effects on EER vs. those of 4.20 mg fucoxanthin ([2]; 8.40 mg fucoxanthin) | minimum doses that resulted in statistically significant increases in EER ([2]; 16-week trial, fucoxanthin as mg fucoxanthin/day) | Effects on EER ([2]; Fucoxanthin 1.68 mg/day) | Effects on EER ([2]; Fucoxanthin 2.52 mg/day) | Effects on EER ([2]; Fucoxanthin 4.20 mg/day) | Effects on EER ([2]; Fucoxanthin 8.40 mg/day) | EER in obese subjects (overall) ([2]; oral supplementation, effect dose-dependent and time-dependent) | tolerability ([1]; 16 weeks, all subjects, no reported adverse effects) | WAT [3] | body weight ([4]; KK-Ay mice) | WAT ([4]; obese KK-Ay mice) | expression of uncoupling protein UCP1 gene in white adipose tissue (WAT) [5]
Pomegranate Seed Oil | well tolerated |  |  |  |  |  |  |  |  |  |  |  |  | 
fucoxanthin |  | highly significant | significant | 2.52 mg | NE | * (* = significant vs. placebo and vs. baseline, p < 0.05% at the week listed for the duration of the study) | * (* = significant vs. placebo and vs. baseline, p < 0.05% at the week listed for the duration of the study) | *** (*** = significant vs. placebo and vs. baseline, p < 0.001%) | increased; also recorded: statistically significant dose-dependent increase | well tolerated | reduced WAT | significant reduction | reduced WAT | upregulates
